Measurements as given in ChEMBL document CHEMBL3860060, “Discovery and Optimization of 1-Phenoxy-2-aminoindanes as Potent, Selective, and Orally Bioavailable Inhibitors of the Na+/H+ Exchanger Type 3 (NHE3)” (J Med Chem, 2016).
Calls of active or inactive are those of the source. The rule behind the calls is not given here.

Columns and labels:
[1] = target: T1, Sodium/hydrogen exchanger 3 (Homo sapiens, UniProt P48764); assay: Inhibition of human NHE3 expressed in LAP1 cell assessed as intracellular pH recovery measured for 2 mins by CECF-AM dye based FLIPR assay
T1 sequence (P48764 whole entry): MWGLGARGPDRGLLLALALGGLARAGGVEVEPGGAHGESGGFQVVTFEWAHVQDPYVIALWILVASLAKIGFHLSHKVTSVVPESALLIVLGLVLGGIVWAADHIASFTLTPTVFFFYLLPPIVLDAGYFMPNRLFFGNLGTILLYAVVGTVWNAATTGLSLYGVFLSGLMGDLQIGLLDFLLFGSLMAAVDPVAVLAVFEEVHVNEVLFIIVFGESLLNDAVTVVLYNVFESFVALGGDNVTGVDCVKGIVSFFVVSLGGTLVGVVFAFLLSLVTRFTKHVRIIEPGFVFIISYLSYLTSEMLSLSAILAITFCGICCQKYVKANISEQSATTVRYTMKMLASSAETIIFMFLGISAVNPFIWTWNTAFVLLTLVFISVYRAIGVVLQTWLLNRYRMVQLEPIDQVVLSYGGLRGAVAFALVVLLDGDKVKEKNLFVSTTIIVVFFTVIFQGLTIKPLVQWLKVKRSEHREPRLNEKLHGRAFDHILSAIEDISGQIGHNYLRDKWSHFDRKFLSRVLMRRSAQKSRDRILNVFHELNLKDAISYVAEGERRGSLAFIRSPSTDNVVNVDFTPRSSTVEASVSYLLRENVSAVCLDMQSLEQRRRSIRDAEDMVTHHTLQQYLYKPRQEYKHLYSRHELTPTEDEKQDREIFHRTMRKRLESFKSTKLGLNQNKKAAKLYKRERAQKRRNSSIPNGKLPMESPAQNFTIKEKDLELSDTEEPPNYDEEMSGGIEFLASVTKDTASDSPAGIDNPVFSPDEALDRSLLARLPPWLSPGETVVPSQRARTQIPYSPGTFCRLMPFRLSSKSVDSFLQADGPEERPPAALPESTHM

[2] = Permeability in human Caco2/TC7 cells assessed as total flux at 20 uM incubated for 2 hrs by LC-MS/MS method; type: ADME, cell-based; settings: Caco-2, read-out: permeability
Cytochrome P450 2D6 = Cytochrome P450 2D6 (Homo sapiens, UniProt P10635)
Description: Inhibition of CYP2D6 in pooled human hepatic microsomes using dextromethorphan substrate in presence of NADPH

CYP2D6 [3] = target: T2, CYP2D6 (Homo sapiens, UniProt P10635); assay: Inhibition of CYP2D6 in pooled human hepatic microsomes at 10 uM using dextromethorphan substrate in presence of NADPH; type: ADME; settings: pooled human liver microsomes, probe dextromethorphan
CYP2D6 [4] = target: T2, CYP2D6; assay: Inhibition of CYP2D6 in pooled human hepatic microsomes assessed as remaining enzyme activity at 0.225 uM using […] substrate in presence of NADPH; type: ADME; settings: pooled human liver microsomes, probe […], read-out: Activity
Sus scrofa [5] = assay: Inhibition of upper airway collapsibility in urethane-chloralose anesthetized pig at 3 mg/kg, id after 4 hrs; type: functional, organism-based
Homo sapiens [6] = species: Homo sapiens; assay: Inhibition of GABA-gated chloride channel (unknown origin) at 10 uM
Homo sapiens [7] = species: Homo sapiens; assay: Inhibition of PDE4 (unknown origin) at 10 uM
Sus scrofa [8] = assay: Inhibition of upper airway collapsibility in urethane-chloralose anesthetized pig at 1 mg/kg, id after 4 hrs; type: functional, organism-based

T2 sequence (P10635 whole entry): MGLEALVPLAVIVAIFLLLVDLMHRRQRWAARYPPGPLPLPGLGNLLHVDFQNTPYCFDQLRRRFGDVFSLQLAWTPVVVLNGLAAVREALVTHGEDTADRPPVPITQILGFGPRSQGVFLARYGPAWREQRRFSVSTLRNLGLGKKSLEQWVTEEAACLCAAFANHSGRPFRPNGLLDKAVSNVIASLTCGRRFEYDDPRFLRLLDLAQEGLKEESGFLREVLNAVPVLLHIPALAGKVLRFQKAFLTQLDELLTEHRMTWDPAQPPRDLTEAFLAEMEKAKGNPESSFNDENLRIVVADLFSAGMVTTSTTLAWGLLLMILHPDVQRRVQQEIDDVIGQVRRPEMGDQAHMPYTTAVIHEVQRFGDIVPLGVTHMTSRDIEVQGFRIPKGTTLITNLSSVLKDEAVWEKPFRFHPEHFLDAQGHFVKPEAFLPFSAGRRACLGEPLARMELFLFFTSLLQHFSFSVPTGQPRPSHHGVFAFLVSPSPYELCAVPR
Cytochrome P450 2D6, sequence (P10635 whole entry): as above

Cc1nnc(C)n1-c1ccc(O[C@H]2c3cc(Cl)cc(Cl)c3C[C@@H]2N2CCCNCC2)cc1
IC50 [1]: 0.023 µM | Papp at 2 h, 20 µM [2]: 0.3 ×10⁻⁶ cm/s | IC50 (Cytochrome P450 2D6): > 10 µM | inhibition at 10 µM (CYP2D6 [3]): 25%

C=C[C@H]1C[N@@]2CC[C@H]1C[C@@H]2[C@@H](O)c1ccnc2ccc(OC)cc12 [QUINIDINE]
activity at 0.225 µM (CYP2D6 [4]): 21%

Cc1nnc(C)n1-c1ccc(O[C@H]2c3cc(Cl)cc(Cl)c3C[C@@H]2N2CC[C@@H](O)C2)c(F)c1
inhibition (Sus scrofa [5]): Active | inhibition (Homo sapiens [6]): 55% | inhibition (Homo sapiens [7]): 54% | inhibition (Sus scrofa [8]): Active
